Legend:
[1] = Inhibition of TGFbetaR1 in mink Mv1Lu cells assessed as TGFbeta-stimulated PSMAD2 phosphorylation preincubated for 1 hr followed by TGFbeta addition measured after 15 mins; format: cell-based, Neovison vison; details: Neogale vison
[2] = Metabolic stability in human liver microsomes assessed as compound remaining by LC-MS/MS analysis; format: ADME, microsome
[3] = Metabolic stability in rat liver microsomes assessed as compound remaining by LC-MS/MS analysis; format: ADME, microsome
[4] = Metabolic stability in mouse liver microsomes assessed as compound remaining by LC-MS/MS analysis; format: ADME, microsome
[5] = Solubility of the compound in DMSO; format: physicochemical
Mus musculus = assay: In vivo inhibition of TGFbetaR1 in po dosed BALB/c mouse implanted with mouse 4T1 cells assessed as reduction in phosphorylated PSMAD levels after 7 hrs; format: functional, organism-based
TGF-beta receptor type-2 = TGF-beta receptor type-2 (Homo sapiens, UniProt P37173); assay: Inhibition of wild type His-tagged TGFbetaR2 (unknown origin) after 1 hr by HTRF assay
TGF-beta receptor type-2, sequence (P37173 whole entry): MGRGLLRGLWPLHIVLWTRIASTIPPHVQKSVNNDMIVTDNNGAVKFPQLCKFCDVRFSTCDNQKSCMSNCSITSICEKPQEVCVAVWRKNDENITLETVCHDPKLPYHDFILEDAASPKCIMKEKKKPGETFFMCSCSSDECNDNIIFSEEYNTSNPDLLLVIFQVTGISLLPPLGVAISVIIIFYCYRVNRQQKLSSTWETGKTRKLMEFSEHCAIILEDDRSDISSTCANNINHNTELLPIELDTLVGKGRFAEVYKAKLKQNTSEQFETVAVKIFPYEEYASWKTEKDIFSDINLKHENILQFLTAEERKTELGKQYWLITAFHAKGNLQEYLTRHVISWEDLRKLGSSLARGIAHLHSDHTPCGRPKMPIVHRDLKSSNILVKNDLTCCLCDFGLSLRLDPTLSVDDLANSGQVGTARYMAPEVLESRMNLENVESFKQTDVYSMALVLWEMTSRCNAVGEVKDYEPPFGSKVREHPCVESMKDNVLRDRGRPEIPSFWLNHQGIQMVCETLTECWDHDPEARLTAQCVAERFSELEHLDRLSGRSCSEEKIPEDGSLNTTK

Row | Compound | IC50 [1] [nM] | Stability [2] [%] | Stability [3] [%] | Stability [4] [%] | solubility [5] | Activity (Mus musculus) | IC50 (TGF-beta receptor type-2) [nM]
1 | Cc1cccc(-c2nc(Nc3ccncc3)c3cccn3n2)n1 | 99 | 11 | 28 | 1 | Soluble | – | –
2 | N[C@H]1CC[C@@H](NCc2ccn3nc(-c4ccccn4)nc(Nc4ccncc4F)c23)CC1 | 76 | 86 | 72 | 48 | – | – | –
3 | CC(=O)Nc1cc(Nc2nc(-c3cccc(C(F)(F)F)n3)nn3cccc23)ccn1 | 180 | 75 | 35 | 49 | – | Dose-dependent effect | –
4 | N[C@@H]1CCN(Cc2ccn3nc(-c4ccccn4)nc(Nc4ccncc4F)c23)C[C@H]1O | 310 | 93 | 92 | 100 | – | – | –
5 | Cc1cccc(-c2nc(Nc3ccncc3F)c3cc[nH]c3n2)n1 | 24 | 25 | 38 | 2 | – | – | –
6 | COc1cccc(-c2nc(Nc3ccncc3)c3cccn3n2)n1 | 3900 | 12 | 36 | 2 | – | – | –
7 | Cc1cccc(-c2nc(Nc3ccncc3F)c3nc[nH]c3n2)n1 | 150 | 38 | 47 | 4 | – | – | –
8 | CC(=O)Nc1cc(Nc2nc(-c3cccc(C(F)(F)F)n3)nc3[nH]cnc23)ccn1 | 130 | 85 | 77 | 59 | – | – | –
9 | Cc1cccc(-c2nn3c(c2-c2ccnc4ccc(C(N)=O)cc24)CCC3)n1 [GALUNISERTIB] | – | – | – | – | – | – | 1300
10 | O=C(CN1CCN(CCO)CC1)Nc1cc(Nc2nc(-c3cccc(C(F)(F)F)n3)nn3cccc23)ccn1 | 220 | 70 | – | 77 | – | – | –
11 | c1ccc(-c2nc(Nc3ccncc3)c3cccn3n2)nc1 | 350 | 33 | 33 | 1 | – | – | –
12 | c1ccc(-c2nn3c(c2-c2ccnc4cc(OCCN5CCOCC5)ccc24)CCC3)nc1 | 750 | 58 | 46 | 36 | – | – | 190
13 | Fc1cnccc1Nc1nc(-c2ccccn2)nn2cccc12 | 500 | 54 | 54 | 19 | – | – | –
14 | Cc1cccc(-c2nc(Nc3ccnc4ccccc34)c3cccn3n2)n1 | – | – | – | – | Insoluble | – | –
15 | Cc1cccc(-c2nc(Nc3c(F)cncc3F)c3cccn3n2)n1 | 1200 | 15 | 39 | 7 | – | – | –
16 | FC(F)(F)c1cccc(-c2nc(Nc3ccncc3)c3cccn3n2)n1 | 710 | 24 | 48 | 13 | – | – | –
17 | Cc1cccc(-c2nc(Nc3ccncc3C(=O)NC(C)C)c3cccn3n2)n1 | > 10000 | 65 | 67 | 26 | – | – | –
18 | CC(=O)Nc1cc(Nc2nc(-c3cccc(C(F)(F)F)n3)nn3cccc23)c(F)cn1 | – | 78 | 68 | 66 | – | – | –
19 | CC(=O)Nc1cc(Nc2nc(-c3cccc(C(F)(F)F)n3)nc3[nH]ccc23)ccn1 | 43 | 81 | 80 | 27 | – | – | –
20 | Cc1cccc(-c2nc(Nc3ccncc3F)c3cccn3n2)n1 | 180 | 11 | 35 | 6 | – | – | –
21 | N[C@H]1CCN(Cc2ccn3nc(-c4ccccn4)nc(Nc4ccncc4F)c23)C[C@@H]1O | 390 | 85 | 90 | 82 | – | – | –
22 | Fc1cnccc1Nc1nc(-c2cccc(C(F)(F)F)n2)nc2[nH]ccc12 | 47 | 36 | – | 28 | – | – | –

Reference: ChEMBL document CHEMBL4184264, “Heterobicyclic inhibitors of transforming growth factor beta receptor I (TGFβRI)” (Bioorg Med Chem, 2018)
